Experimental findings from ChEMBL document CHEMBL4325829, “Design and Synthesis of Tubulin and Histone Deacetylase Inhibitor Based on iso-Combretastatin A-4” (J Med Chem, 2018) are described below.

In assay [1] the target is T1, Histone deacetylase (Homo sapiens) (UniProt Q13547+O15379+Q9UBN7+Q92769+Q9UQL6+Q8WUI4+Q9BY41+Q96DB2+P56524+Q9UKV0+Q969S8). The assay is described as follows: Inhibition of HDAC in human HT-29 cells assessed as phosphorylated gamma-H2AX levels at 40 nM after 3 days by Western blot analysis relative to control. It is filed as cell-based.
The next assay concerns MIA PaCa-2. The assay is described as follows: Antiproliferative activity against human MIAPaCa2 cells after 72 hrs by MTS assay. The assay is classed as functional. As to conditions: Homo sapiens, MIA PaCa-2, 72 h. (In general: Formazan colour is commonly taken as a measure of viable cells.)
In assay [2] the target is T2, Protein deacetylase HDAC6 (Homo sapiens) (UniProt Q9UBN7).
T2 sequence (whole entry): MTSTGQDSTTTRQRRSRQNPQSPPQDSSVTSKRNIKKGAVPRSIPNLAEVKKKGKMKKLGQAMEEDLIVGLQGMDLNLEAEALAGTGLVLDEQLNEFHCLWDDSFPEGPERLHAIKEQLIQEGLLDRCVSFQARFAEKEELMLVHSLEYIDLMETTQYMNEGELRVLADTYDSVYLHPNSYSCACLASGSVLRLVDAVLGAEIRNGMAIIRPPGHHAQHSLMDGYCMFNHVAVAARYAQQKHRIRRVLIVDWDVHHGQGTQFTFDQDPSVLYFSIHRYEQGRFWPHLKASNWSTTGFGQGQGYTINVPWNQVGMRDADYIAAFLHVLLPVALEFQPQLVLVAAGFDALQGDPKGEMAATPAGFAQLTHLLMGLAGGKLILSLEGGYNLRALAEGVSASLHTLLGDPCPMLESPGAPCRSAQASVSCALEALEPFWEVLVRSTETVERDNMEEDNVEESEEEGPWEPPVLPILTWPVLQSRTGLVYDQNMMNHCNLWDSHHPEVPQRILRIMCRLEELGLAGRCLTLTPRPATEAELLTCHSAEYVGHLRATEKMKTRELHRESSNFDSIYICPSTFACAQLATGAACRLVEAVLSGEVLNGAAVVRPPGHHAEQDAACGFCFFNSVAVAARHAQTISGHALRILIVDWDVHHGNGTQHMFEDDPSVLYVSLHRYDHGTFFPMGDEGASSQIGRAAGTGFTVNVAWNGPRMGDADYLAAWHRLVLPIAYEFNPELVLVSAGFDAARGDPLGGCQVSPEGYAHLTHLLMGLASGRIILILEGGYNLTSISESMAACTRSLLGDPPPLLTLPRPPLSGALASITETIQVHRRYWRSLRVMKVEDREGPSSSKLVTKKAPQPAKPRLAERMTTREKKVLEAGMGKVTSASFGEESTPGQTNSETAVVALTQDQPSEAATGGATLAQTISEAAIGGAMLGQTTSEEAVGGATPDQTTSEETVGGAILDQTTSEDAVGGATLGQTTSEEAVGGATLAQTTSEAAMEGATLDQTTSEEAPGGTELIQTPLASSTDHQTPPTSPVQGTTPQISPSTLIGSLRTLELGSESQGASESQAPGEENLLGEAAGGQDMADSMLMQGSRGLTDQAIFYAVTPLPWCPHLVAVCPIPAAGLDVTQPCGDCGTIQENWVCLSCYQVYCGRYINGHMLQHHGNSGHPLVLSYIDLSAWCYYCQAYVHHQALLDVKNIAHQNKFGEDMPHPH
The assay is described as follows: Inhibition of human recombinant HDAC6 at 10^-5 M after 30 mins using fluorogenic substrate by fluorimetric assay relative to control.

Assay [3] concerns the target T3, Protein deacetylase HDAC6 (Homo sapiens, UniProt Q9UBN7).
T3 sequence (Q9UBN7 whole entry): T2 sequence (whole entry)
Description: Inhibition of human recombinant HDAC6 after 30 mins using fluorogenic substrate by fluorimetric assay

For another assay, the system named is A549. Briefly: Antiproliferative activity against human A549 cells after 72 hrs by MTS assay. It is filed as functional. As to conditions: Homo sapiens, A549, 72 h.
Assay [4] deals with T1, Histone deacetylase (Homo sapiens). The assay is described as follows: Inhibition of HDAC in human HT-29 cells assessed as gamma-H2AX phosphorylation after 3 days by Western blot analysis. The assay is classed as cell-based. For orientation: In western blotting, separated proteins are transferred to a membrane and probed.
Assay [5] is described as follows: Inhibition of sheep brain tubulin polymerization assessed as reduction in rate of microtubule assembly by DAPI-fluorescence based assay. Details: species or system Ovis aries.
In assay [6] the target is Histone deacetylase 4 (Homo sapiens) (UniProt P56524). Briefly: Inhibition of human recombinant HDAC4 at 10^-5 M after 30 mins using fluorogenic substrate by fluorimetric assay relative to control.
Histone deacetylase 4 (Homo sapiens), sequence (P56524 whole entry): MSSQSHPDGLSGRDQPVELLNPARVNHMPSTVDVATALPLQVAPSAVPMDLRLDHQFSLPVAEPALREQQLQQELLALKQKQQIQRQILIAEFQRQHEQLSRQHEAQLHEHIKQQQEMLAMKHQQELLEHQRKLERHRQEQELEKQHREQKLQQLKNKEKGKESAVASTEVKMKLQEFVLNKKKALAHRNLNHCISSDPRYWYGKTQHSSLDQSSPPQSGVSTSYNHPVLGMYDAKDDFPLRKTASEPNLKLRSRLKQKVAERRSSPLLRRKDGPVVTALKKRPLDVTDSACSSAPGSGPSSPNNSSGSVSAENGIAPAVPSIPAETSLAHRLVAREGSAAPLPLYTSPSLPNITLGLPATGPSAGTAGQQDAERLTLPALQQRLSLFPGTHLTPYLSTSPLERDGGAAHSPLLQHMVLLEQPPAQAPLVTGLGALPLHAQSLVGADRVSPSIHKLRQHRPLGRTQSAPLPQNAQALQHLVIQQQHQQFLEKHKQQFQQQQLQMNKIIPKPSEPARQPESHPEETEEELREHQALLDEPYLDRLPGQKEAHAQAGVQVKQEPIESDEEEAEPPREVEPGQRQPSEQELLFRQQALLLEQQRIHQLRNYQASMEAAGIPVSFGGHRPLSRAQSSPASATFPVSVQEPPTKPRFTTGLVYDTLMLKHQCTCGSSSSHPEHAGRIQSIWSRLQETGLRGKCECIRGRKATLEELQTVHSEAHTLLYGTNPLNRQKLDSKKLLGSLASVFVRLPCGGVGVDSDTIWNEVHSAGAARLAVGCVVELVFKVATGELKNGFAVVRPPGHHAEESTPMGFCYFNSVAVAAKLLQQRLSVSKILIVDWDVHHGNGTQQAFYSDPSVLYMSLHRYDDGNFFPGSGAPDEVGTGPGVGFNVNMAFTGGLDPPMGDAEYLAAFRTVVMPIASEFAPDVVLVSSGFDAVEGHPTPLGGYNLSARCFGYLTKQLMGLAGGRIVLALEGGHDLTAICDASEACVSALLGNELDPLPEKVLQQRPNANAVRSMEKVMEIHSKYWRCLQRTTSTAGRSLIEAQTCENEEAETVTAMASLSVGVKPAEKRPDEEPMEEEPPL
For assay [7], the target named is T4, Tubulin (Homo sapiens) (UniProt P68371+Q9H4B7+P0DPH7+P68366+Q13509+Q71U36+P04350+Q3ZCM7+P07437+P68363+Q9BQE3+Q6PEY2+Q13885+Q9BVA1+Q9BUF5). The assay is described as follows: Inhibition of tubulin polymerization in human K562 cells assessed as disruption of spindle formation at 1 nM after 24 hrs by DAPI-staining based inverted microscopy. It is filed as cell-based.

Another assay relates to K-562R. The assay is described as follows: Potency index, ratio of IC50 for isoCA4 to IC50 for test compound for antiproliferative activity against human K562R cells after 72 hrs by MTS assay. It is filed as functional.
The subject of a further assay is BXPC-3. Briefly: Antiproliferative activity against human BxPC3 cells after 72 hrs by MTS assay. It is filed as functional. As to conditions: Homo sapiens, BXPC-3, 72 h.
Assay [8] deals with HT-29. Briefly: Potency index, ratio of IC50 for TSA to IC50 for test compound for antiproliferative activity against human HT-29 cells after 72 hrs by MTS assay. It is filed as functional.
Assay [9] has as its target Histone deacetylase 9 (Homo sapiens) (UniProt Q9UKV0). Briefly: Inhibition of human recombinant HDAC9 at 10^-5 M after 30 mins using fluorogenic substrate by fluorimetric assay relative to control.
Assay [10] concerns the target Histone deacetylase 5 (Homo sapiens) (UniProt Q9UQL6). The assay is described as follows: Inhibition of human recombinant HDAC5 at 10^-5 M after 30 mins using fluorogenic substrate by fluorimetric assay relative to control.
Assay [11] addresses T4, Tubulin (Homo sapiens). The assay is described as follows: Inhibition of tubulin polymerization in human K562 cells assessed as shrinkage of microtubule spindles at 10 nM after 24 hrs by DAPI-staining based inverted microscopy. The assay is classed as cell-based.
In assay [12] the target is T5, Histone deacetylase 8 (Homo sapiens) (UniProt Q9BY41).
T5 sequence (whole entry): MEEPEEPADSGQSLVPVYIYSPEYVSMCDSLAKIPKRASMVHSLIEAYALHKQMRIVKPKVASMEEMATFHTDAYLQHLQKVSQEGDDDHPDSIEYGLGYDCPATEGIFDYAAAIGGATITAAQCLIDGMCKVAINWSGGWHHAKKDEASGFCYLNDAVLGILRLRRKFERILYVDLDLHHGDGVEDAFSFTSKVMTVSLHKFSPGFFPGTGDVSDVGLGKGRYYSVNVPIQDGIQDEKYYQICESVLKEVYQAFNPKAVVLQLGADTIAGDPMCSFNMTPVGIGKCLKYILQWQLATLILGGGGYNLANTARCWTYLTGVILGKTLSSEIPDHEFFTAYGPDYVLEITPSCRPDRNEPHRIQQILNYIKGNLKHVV
The assay is described as follows: Inhibition of HDAC8 in human HT-29 cells assessed as acetylated SMC3 levels at 25 uM after 6 hrs by Western blot analysis relative to control. It is filed as cell-based.

Assay [13] can be described thus: Antiproliferative activity against human BL2 cells after 72 hrs by MTS assay. It is filed as functional, cell-based. As to conditions: BL2, 72 h.
The test system of assay [14] is HT-29. The assay is described as follows: Antiproliferative activity against human HT-29 cells in presence of TSA after 72 hrs by MTS assay relative to control. It is filed as functional, cell-based. As to conditions: HT-29, 72 h.

Activity calls are given as the source filed them. No cut-off for these calls is given here.

Histone deacetylase 5 (Homo sapiens), sequence (Q9UQL6 whole entry): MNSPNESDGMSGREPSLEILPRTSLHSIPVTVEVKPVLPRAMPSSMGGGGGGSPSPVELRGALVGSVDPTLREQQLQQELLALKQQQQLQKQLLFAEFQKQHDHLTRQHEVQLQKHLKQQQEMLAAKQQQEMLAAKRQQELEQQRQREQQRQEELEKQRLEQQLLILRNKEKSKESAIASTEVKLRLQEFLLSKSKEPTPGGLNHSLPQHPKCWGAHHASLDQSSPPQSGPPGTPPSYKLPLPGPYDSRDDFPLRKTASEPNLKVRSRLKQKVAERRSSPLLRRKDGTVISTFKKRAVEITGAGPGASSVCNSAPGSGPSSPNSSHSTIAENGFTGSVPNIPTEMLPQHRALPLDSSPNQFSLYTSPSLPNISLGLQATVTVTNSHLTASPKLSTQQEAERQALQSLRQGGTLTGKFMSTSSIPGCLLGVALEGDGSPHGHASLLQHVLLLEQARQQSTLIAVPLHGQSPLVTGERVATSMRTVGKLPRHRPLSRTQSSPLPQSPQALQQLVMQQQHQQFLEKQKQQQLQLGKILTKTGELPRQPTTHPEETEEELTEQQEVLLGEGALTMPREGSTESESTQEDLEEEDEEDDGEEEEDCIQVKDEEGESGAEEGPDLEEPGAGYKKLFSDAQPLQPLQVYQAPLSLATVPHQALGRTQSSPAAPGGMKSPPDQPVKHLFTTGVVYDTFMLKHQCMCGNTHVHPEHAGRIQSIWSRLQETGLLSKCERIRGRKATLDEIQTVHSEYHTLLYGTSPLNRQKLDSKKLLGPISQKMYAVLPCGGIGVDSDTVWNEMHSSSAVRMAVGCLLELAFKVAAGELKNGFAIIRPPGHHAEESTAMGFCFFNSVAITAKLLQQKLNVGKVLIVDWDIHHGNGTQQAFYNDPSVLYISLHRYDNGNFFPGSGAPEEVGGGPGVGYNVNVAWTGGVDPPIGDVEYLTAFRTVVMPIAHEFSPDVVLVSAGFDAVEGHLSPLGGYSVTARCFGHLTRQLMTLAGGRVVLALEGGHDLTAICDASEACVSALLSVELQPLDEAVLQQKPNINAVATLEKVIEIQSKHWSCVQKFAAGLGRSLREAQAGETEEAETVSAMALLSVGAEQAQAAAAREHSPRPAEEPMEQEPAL
Histone deacetylase 9 (Homo sapiens), sequence (Q9UKV0 whole entry): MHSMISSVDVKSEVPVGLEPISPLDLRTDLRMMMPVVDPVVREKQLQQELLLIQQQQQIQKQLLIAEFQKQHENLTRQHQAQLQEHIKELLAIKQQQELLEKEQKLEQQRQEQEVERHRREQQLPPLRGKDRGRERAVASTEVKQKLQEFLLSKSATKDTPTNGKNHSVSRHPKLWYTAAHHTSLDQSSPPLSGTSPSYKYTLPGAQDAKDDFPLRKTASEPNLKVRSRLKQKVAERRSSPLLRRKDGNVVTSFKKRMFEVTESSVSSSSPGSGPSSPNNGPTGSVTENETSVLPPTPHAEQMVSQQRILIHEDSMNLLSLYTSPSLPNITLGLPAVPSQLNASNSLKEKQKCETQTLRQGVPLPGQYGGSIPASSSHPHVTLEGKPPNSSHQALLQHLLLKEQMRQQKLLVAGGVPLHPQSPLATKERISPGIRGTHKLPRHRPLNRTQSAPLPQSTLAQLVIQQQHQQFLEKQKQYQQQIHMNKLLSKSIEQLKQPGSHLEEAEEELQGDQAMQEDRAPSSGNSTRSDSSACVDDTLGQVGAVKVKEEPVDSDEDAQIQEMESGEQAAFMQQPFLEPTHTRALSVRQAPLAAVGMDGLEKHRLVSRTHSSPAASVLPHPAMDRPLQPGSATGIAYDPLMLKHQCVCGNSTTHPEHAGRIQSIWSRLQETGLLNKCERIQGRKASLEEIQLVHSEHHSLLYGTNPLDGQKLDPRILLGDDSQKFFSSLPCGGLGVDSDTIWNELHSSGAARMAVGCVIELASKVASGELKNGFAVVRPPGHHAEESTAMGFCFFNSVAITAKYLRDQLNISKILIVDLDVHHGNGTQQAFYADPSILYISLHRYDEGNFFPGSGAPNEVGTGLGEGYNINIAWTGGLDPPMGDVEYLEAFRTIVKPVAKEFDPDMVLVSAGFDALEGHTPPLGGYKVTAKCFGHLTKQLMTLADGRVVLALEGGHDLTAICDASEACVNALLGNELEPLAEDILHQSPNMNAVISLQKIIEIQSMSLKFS

By GI50 is commonly meant the concentration that inhibits growth by half. Read a low GI50 as greater sensitivity of the cells. One may read the inhibition as the drop in the measured response relative to a control, in per cent. One may read the IC50 as the midpoint of a concentration-inhibition curve. As for `C=C(c1ccc(OC)c(/C=C/C(=O)NO)c1)c1cc(OC)c(OC)c(OC)c1`, the fold change (FC) in [1] and in assay [12] was 3.2 throughout. Moreover, the GI50 with MIA PaCa-2 was determined as 5.1 nM; in the assay on A549, 1.7 nM; with BXPC-3, 2.9 nM. Also, the inhibition in assay [2] is less than 50%; in [4], “Dose-dependent effect”; in [6], less than 50%; in assay [9] it was less than 50%; in assay [10] it was less than 50%. For the same compound, the IC50 was 15000 nM in assay [3], 1600 nM in assay [5] and 10 nM in assay [13]. For the same compound, the result on Tubulin (Homo sapiens) [7] and at Tubulin (Homo sapiens) [11] was Active. Moreover, the figures for the “Ratio IC50” value in the assay with K-562R and with HT-29 [8] were 2 and 17, respectively.
For `C=C(c1ccc(OC)c(O)c1)c1cc(OC)c(OC)c(OC)c1`, the GI50 with MIA PaCa-2 was determined as 10 nM; in the assay on A549, 10 nM; in the assay on BXPC-3, 20 nM. Besides, the inhibition result in assay [2], in assay [6], in assay [9] and in [10] was “inactive” each time. In addition, the values for the IC50 (in [5]; in the assay with HT-29 [14]) were 2000 nM and 3.8 nM, respectively.
